These compounds were tested on MRSA (assay: Activity against a strain of MRSA pathogen, relative to thienamycin). Conditions: relative to the effectiveness of thienamycin, arbitrarily assigned an effectiveness of 1; one strain of MRSA.
Type: cell-based, methicillin resistant Staphylococcus aureus
Method: The activity of the following compounds was measured against a strain of MRSA pathogen and reported as relative to the effectiveness of thienamycin, which is arbitrarily assigned an effectiveness of 1. Regarding this measure of activity, reference is made to R. Guthikonda, et al., J. Med. Chem., 30, 871 (1987). [drawing 18]

| SMILES | ANTI-INFECTIVE ACTIVITY MRSA |
| --- | --- |
| C[C@@H](O)[C@H]1C(=O)N2C(C(=O)O)=C(c3ccc(Cl)cc3)C[C@H]12 [R^a1 = H, R^a2 = Cl] | 1.3 |
| C[C@@H](O)[C@H]1C(=O)N2C(C(=O)O)=C(c3cccc(F)c3)C[C@H]12 [R^a1 = F, R^a2 = H] | 2 |
| C[C@@H](O)[C@H]1C(=O)N2C(C(=O)O)=C(c3ccc(F)cc3)C[C@H]12 [R^a1 = H, R^a2 = F] | 1.1 |
| C[C@@H](O)[C@H]1C(=O)N2C(C(=O)O)=C(c3cccc(Cl)c3)C[C@H]12 [R^a1 = Cl, R^a2 = H] | 8.1 |
| C[C@@H](O)[C@H]1C(=O)N2C(C(=O)O)=C(c3cccc(Br)c3)C[C@H]12 [R^a1 = Br, R^a2 = H, sodium (5R,6S)-2-[3-bromophenyl]-6[(1R)-1-hydroxyethyl]-carbapen-2-em-3-carboxylate] | 14 |
| C[C@@H](O)[C@H]1C(=O)N2C(C(=O)O)=C(c3ccc(Br)cc3)C[C@H]12 [R^a1 = H, R^a2 = Br] | 1.6 |
| C[C@@H](O)[C@H]1C(=O)N2C(C(=O)O)=C(c3ccc(I)cc3)C[C@H]12 [R^a1 = H, R^a2 = I] | 1.8 |
